From article PMC6591397, “Functional Roles of Metabolic Intermediates in Regulating the Human Mitochondrial NAD(P)^+-Dependent Malic Enzyme” (Scientific Reports, 2019)
Like-named read-outs stand apart in the source and are kept apart here.

Tests used:
[1] = target: human m-NAD(P)-ME WT and the exosite mutants; test: Size distribution analysis by analytical ultracentrifugation of WT and exosite mutants, protein only, with NAD+ or with ATP; type: binding; conditions: PBS
Method: Size distribution of the monomer-dimer-tetramer equilibrium of the enzyme was monitored using a Beckman Optima XL-A analytical ultracentrifuge instrument. A protein sample (380 µl) and reference buffer (400 µl) were loaded into a well-assembled cell with a double-sector centerpiece. Experiments were performed with an An-50Ti rotor at 42,000 rpm and 20 °C for 3 to 4 hours. The scans for sedimentation velocity data were monitored by the UV absorbance at 280 nm with a 480 s interval time and a 0.002 cm step size in continuous distribution mode. Using the SEDFIT 9.4c software[31]–[34], the size distribution of the enzyme was analyzed with a resolution corresponding to N = 200 to cover the range of sedimentation coefficient (S) values from approximately 0.1 to 20, a confidence level of p = 0.95, and a best-fit average anhydrous frictional ratio (f/f0). The dissociation constants of monomer-dimer-tetramer self-association model were globally analyzed by using the SEDPHAT software.
All sedimentation velocity data were globally fitted by a monomer-dimer-tetramer equilibrium model by the software program of SEDPHAT[34]. The parameters protein partial specific volume, solvent density and viscosity were calculated with the […] software program.
Figure 4 Continuous sedimentation coefficient distribution of human m-NAD(P)-ME WT and the exosite mutants. The enzyme concentrations were fixed at 1.6, 4.7, and 14.2 μM in PBS. […] (a) ME2_WT; (b) ME2_H154V; (c) ME2_K156A; (d) ME2_G192A; (e) ME2_R194N; (f) ME2_R197E; (g) ME2_R197D.
Figure 5 Continuous sedimentation coefficient distribution of human m-NAD(P)-ME WT and the exosite mutants. The enzyme concentrations were fixed at 1.6, 4.7, and 14.2 μM in PBS. […] (a) ME2_N482G; (b) ME2_N482A; (c) ME2_R542V; (d) ME2_Y552F; (e) ME2_R556Q; (f) ME2_R556V.

[2] = system: human m-NAD(P)-ME WT and exosite mutants; test: Enzyme kinetic assay (NADH production, absorbance at 340 nm) of WT and exosite mutants; type: biochemical; conditions: for K0.5,malate / Km / kcat: pH 7.4
Method: The ME reaction was measured with the production rate of NADH or NADPH via the absorbance at 340 nm. The reaction mixture in a saturated condition included 1 mM NAD(P)^+, 40 mM malate, and 10 mM MgCl2 in 50 mM Tris-HCl (pH 7.4). To determine the Km and kcat values, the concentration of one substrate was varied around its Km values while the concentrations of the other components were fixed at saturated concentrations.
The cooperativity of malate was determined with the following equation: ν=Vmax×[Malate]^h/K0.5h+[Malate]^h where ν is the initial velocity, Vmax is the maximum rate of the reaction, K0.5 is the substrate concentration at half-maximal velocity, and h is the Hill coefficient, which represents the degree of cooperativity.

lung tumor = system: lung tumor; design: method as in PMID 24957098; conditions: in vivo; cited from earlier work
m-NAD(P)-ME [3] = target: T1, m-NAD(P)-ME (Homo sapiens, UniProt P23368); test: Size distribution analysis by analytical ultracentrifugation: monomer-dimer-tetramer equilibrium with different ligands; type: binding; conditions: NAD+-bound enzyme vs apoenzyme
T1 construct: made in house; host or cells: E. coli BL21 (pRH281 vector, trp promoter)
T1 sequence (P23368 19-584): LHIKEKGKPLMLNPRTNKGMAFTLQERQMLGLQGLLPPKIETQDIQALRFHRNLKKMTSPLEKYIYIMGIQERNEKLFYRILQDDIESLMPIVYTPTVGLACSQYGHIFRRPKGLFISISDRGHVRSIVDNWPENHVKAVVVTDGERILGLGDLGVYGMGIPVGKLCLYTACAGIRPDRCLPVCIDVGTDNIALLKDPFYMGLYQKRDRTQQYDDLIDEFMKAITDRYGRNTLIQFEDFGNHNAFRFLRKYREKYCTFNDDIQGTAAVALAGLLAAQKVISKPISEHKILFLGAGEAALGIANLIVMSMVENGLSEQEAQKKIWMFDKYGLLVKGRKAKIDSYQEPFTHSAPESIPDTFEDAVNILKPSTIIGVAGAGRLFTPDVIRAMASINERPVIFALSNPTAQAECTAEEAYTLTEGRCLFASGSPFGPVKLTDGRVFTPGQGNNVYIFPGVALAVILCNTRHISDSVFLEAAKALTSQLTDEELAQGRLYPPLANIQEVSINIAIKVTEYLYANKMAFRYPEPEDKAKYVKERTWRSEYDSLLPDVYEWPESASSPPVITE
Method: All sedimentation velocity data were globally fitted by a monomer-dimer-tetramer equilibrium model by the software program of SEDPHAT[34]. The parameters protein partial specific volume, solvent density and viscosity were calculated with the [sequence] software program[35].

m-NAD(P)-ME [4] = target: T1, m-NAD(P)-ME; test: Quaternary structure analysis by native gel electrophoresis; type: binding; conditions: 8 μg enzyme; 0.4 or 2 mM NAD+, 0.5 or 2 mM ATP
Method: The native gel was running under 110 Voltage with a running buffer (25 mM Tris-HCl and 192 mM glycine, pH8.3) at 4 °C. After electrophoresis, protein was detected by staining with the Coomassie brilliant blue R-250.
Figure S1. Quaternary structure of m-NAD(P)-ME determined by the native gel electrophoresis. The dimer-tetramer distribution of m-NAD(P)-ME was presented on the 3-12% Bis-Tris Native PAGE (NativePAGE^TM Novex®, Life Technologies).

[5] = system: human non-small cell lung carcinoma H1299 cancer cells; design: method as in PMID 26008970; conditions: cited from earlier work
[6] = protein only, read-out: Kd,12 monomer-dimer dissociation constant
[7] = protein only, read-out: Kd,24 dimer-tetramer dissociation constant
[8] = read-out: Kd,12(ATP), with 0.5 mM ATP
[9] = read-out: Kd,24(ATP), with 0.5 mM ATP
[10] = with 0.4 mM NAD+, read-out: Kd,12(NAD)
[11] = with 0.4 mM NAD+, read-out: Kd,24(NAD)

Kd [1, 6] [nM] | Kd [1, 7] [nM] | Kd [1, 8] [nM] | Kd [1, 9] [nM] | Kd [1, 10] [nM] | Kd [1, 11] [nM] | h (Hill coefficient, malate cooperativity) ([2]; (+) with 5 mM fumarate) | h (Hill coefficient, malate cooperativity) ([2]; (−) without fumarate) | Compound | K0.5,malate ([2]; (+) with 5 mM fumarate) [mM] | Km ([2]; (+) with 5 mM fumarate) [µM] | kcat ([2]; (+) with 5 mM fumarate) [s⁻¹] | K0.5,malate ([2]; (−) without fumarate) [mM] | Km ([2]; (−) without fumarate) [µM] | kcat ([2]; (−) without fumarate) [s⁻¹] | other results
130 ± 1 | 2300 ± 20 | 2030 ± 60 | 180 ± 10 | 600 ± 10 | 4070 ± 80 | 1.24 ± 0.30 | 2.35 ± 0.47 | R556V: exosite mutant of human m-NAD(P)-ME | 1.87 ± 0.26 | 360 ± 20 | 204.9 ± 9.5 | 15.90 ± 1.51 | 1080 ± 60 | 195.2 ± 12.8 | 
 |  |  |  |  |  |  |  | COC(=O)CC(O)C(=O)OC (stereo not shown) [DMM, dimethyl-malate] |  |  |  |  |  |  | effect on lung tumor growth (lung tumor): suppress lung tumor growth in vivo
30 ± 1 | 2330 ± 80 | 100 ± 3 | 590 ± 20 | 100 ± 3 | 1110 ± 40 | 1.24 ± 0.10 | 1.65 ± 0.30 | R197E: exosite mutant of human m-NAD(P)-ME | 4.55 ± 0.37 | 1110 ± 90 | 187.6 ± 5.2 | 23.37 ± 4.48 | 2370 ± 280 | 165.2 ± 20.4 | 
90 ± 2 | 300 ± 1 | 210 ± 10 | 400 ± 10 | 60 ± 2 | 180 ± 10 | 1.19 ± 0.10 | 1.30 ± 0.19 | G192A: exosite mutant of human m-NAD(P)-ME | 2.65 ± 0.18 | 320 ± 30 | 230.0 ± 4.4 | 11.18 ± 2.08 | 570 ± 70 | 210.6 ± 7.7 | 
290 ± 10 | 950 ± 30 | 1440 ± 40 | 350 ± 10 | 580 ± 30 | 970 ± 50 | 1.04 ± 0.14 | 1.87 ± 0.70 | N482A: exosite mutant of human m-NAD(P)-ME | 1.02 ± 0.08 | 20 ± 10 | 215.6 ± 0.1 | 17.43 ± 5.10 | 700 ± 170 | 169.1 ± 0.6 | 
800 ± 20 | 260 ± 10 | 690 ± 20 | 110 ± 3 | 60 ± 3 | 810 ± 40 | 1.06 ± 0.05 | 1.76 ± 0.23 | R197D: exosite mutant of human m-NAD(P)-ME | 4.98 ± 0.28 | 130 ± 20 | 216.0 ± 0.1 | 17.82 ± 2.01 | 460 ± 50 | 206.8 ± 0.1 | 
50 ± 10 | 180 ± 2 | 100 ± 3 | 60 ± 2 | 380 ± 2 | 40 ± 10 | 1.00 ± 0.09 | 1.59 ± 0.14 | N482G: exosite mutant of human m-NAD(P)-ME | 4.23 ± 0.47 | 610 ± 40 | 309.7 ± 11.5 | 23.81 ± 2.70 | 1500 ± 140 | 263.2 ± 19.7 | 
310 ± 10 | 230 ± 10 | 80 ± 1 | 1440 ± 30 | 170 ± 10 | 40 ± 1 | 1.08 ± 0.08 | 2.18 ± 0.15 | R194N: exosite mutant of human m-NAD(P)-ME | 5.11 ± 0.50 | 760 ± 70 | 227.4 ± 6.1 | 19.53 ± 0.91 | 1600 ± 160 | 204.4 ± 8.3 | 
120 ± 4 | 320 ± 10 | 320 ± 10 | 800 ± 20 | 1360 ± 50 | 80 ± 3 | 1.01 ± 0.10 | 1.65 ± 0.04 | K156A: exosite mutant of human m-NAD(P)-ME | 3.56 ± 0.40 | 320 ± 30 | 223.6 ± 5.1 | 10.12 ± 0.21 | 650 ± 70 | 209.9 ± 6.2 | 
 |  |  |  |  |  |  |  | NC(=O)c1ccc[n+]([C@@H]2O[C@H](COP(=O)([O-])OP(=O)(O)OC[C@H]3O[C@@H](n4cnc5c(N)ncnc54)[C@H](O)[C@@H]3O)[C@@H](O)[C@H]2O)c1 [NAD, NAD^+] |  |  |  |  |  |  | Kd,24 lower than that of the apoenzyme (m-NAD(P)-ME [3]): 6 fold; dimer-tetramer distribution of the enzyme on native gel (m-NAD(P)-ME [4]): most tetrameric forms
240 ± 2 | 350 ± 3 | 640 ± 10 | 2720 ± 60 | 660 ± 10 | 50 ± 1 | 1.10 ± 0.09 | 2.41 ± 0.32 | WT: wild-type human mitochondrial NAD(P)+-dependent malic enzyme (ME2), recombinant from E. coli | 2.98 ± 0.21 | 390 ± 50 | 261.7 ± 6.0 | 10.67 ± 0.64 | 540 ± 60 | 252.0 ± 8.2 | h (Hill coefficient, malate cooperativity) ([2]; (−) without fumarate, listed as Human m-NAD(P)-ME): approximately 2
10 ± 3 | 1750 ± 60 | 400 ± 10 | 180 ± 10 | 180 ± 10 | 910 ± 30 | 1.20 ± 0.07 | 1.71 ± 0.27 | R556Q: exosite mutant of human m-NAD(P)-ME | 4.75 ± 0.31 | 690 ± 60 | 251.8 ± 5.6 | 19.01 ± 2.40 | 1160 ± 220 | 220.5 ± 16.2 | 
10 ± 1 | 440 ± 10 | 20 ± 1 | 9870 ± 380 | 1870 ± 80 | 210 ± 10 | 1.06 ± 0.11 | 1.43 ± 0.09 | R542V: exosite mutant of human m-NAD(P)-ME | 5.89 ± 0.78 | 910 ± 180 | 239.3 ± 12.6 | 27.00 ± 3.44 | 2180 ± 270 | 175.6 ± 14.0 | 
 |  |  |  |  |  |  |  | O=C(O)c1cc2ccccc2c(Cc2c(O)c(C(=O)O)cc3ccccc23)c1O [EA, Embonic acid] |  |  |  |  |  |  | effect on cell growth [5]: suppresses the cell growth; effect on cellular senescence [5]: induces the cellular senescence
30 ± 2 | 460 ± 3 | 460 ± 10 | 4030 ± 40 | 70 ± 1 | 160 ± 1 | 1.08 ± 0.05 | 1.99 ± 0.10 | H154V: exosite mutant of human m-NAD(P)-ME | 4.94 ± 0.26 | 530 ± 40 | 140.5 ± 2.5 | 15.31 ± 0.51 | 970 ± 60 | 134.6 ± 2.9 | kcat compared with the WT value [2]: reduced to half of the WT value
